# B1: MM-121: fully human anti-ErbB3 antibody, VH and VL sequences SEQ ID NOs: 1 and 2 (antibody, V domains shown)
# VH: EVQLLESGGGLVQPGGSLRLSCAASGFTFSHYVMAWVRQAPGKGLEWVSSISSSGGWTLYADSVKGRFTISRDNSKNTLYLQMNSLRAEDTAVYYCTRGLKMATIFDYWGQGTLVTVSS
# VL: QSALTQPASVSGSPGQSITISCTGTSSDVGSYNVVSWYQQHPGKAPKLIIYEVSQRPSGVSNRFSGSKSGNTASLTISGLQTEDEADYYCCSYAGSSIFVIFGGGTKVTVL
# Experiments:
# A2780cis cells = test: Cell Titer Glo cell viability after cisplatin, resistant versus sensitive line; type: cell-based, human; settings: cisplatin 0.01 to 10 μM, 72 hours
# Method: The A2780 human ovarian cancer cell line was originally established from tumor tissue from an untreated patient. The A2780cis cell line is cisplatin-resistant (Cat. #93112517, Sigma). […] A2780cis is cross-resistant to melphalan, adriamycin and irradiation.
# Cell viability is measured using the Cell Titer Glo assay (Cat. # G7570, Promega) according to the manufacturer's instructions.
# Cell viability was measured by the Cell Titer Glo assay which measures metabolically active cells by quantitating ATP.
# pAKT in A2780cis cells = test: pAKT (ser473) western blot in cisplatin-resistant cells; type: cell-based, human; settings: cisplatin 0.1 to 10 μM or MM-121 0.01 to 1 μM, 1, 4, 24 or 72 hours
# Method: (§1) After incubation cell lysates are prepared and analyzed for pAKT (ser473) (Cat #9271 Cell Signaling Technologies) by western blot.
# (§2) The effect of MM-121 on the AKT pathway is determined by treating sensitive (A2780) and resistant (A2780cis) cells with a dose range of MM-121 ((0.01 to 1 μM) in vitro for 1, 4, 24 or 72 hours. After incubation cell lysates are prepared and analyzed for pAKT (ser473) (Cat. #9271 Cell Signaling Technologies) by western blot.
# (§3) Cell lysates are analyzed by western blot for pAKT.
# pAKT in A2780 cells = test: pAKT (ser473) western blot in cisplatin-sensitive cells; type: cell-based, human; settings: cisplatin 0.1 to 10 μM, especially after 24 hours and/or 10 μM
# Method: as §1, §2, §3
# BT474-M3 cells = test: In vitro breast cancer model, viable cell count after 6 days; type: cell-based
# [1] = tested on: pAKT in heregulin-stimulated BT474-M3 cells; test: Inhibition of AKT phosphorylation in heregulin-stimulated cells; type: cell-based; settings: dose range
# [2] = tested on: ErbB3, Akt and ERK1/2 signaling in BT474-M3-GFP-HRG tumors; test: Target and downstream signaling in BT474-M3-GFP-HRG tumor lysates (Luminex, western blot); type: in vivo, mice; settings: for activity in reducing pErbB3 levels with tumoral HRG expression: versus BT474-M3-GFP; for ratio of pERK and totERK levels / ratio of pErbB3 to total ErbB3 / ratio of phospho-Akt to total Akt: in the presence of HRG
# Method: (§4) At the end of study (21 or 25 days after initiation of treatment for BT474-M3-GFP-HRG and BT474-M3-GFP, respectively) tumor samples were collected (24 h after the last MM-111 and 6 h after the last lapatinib dose) and analyzed for target and downstream signaling inhibition. Total and phosphorylated ErbB3 and Akt protein levels were analyzed from tumor lysates by suspension array technology (Luminex) and total and phosphorylated Erk1/2 levels by western blot using PCNA to normalize the results.
# NCI-N87 tumors = settings: paclitaxel 20 mpk q7d, trastuzumab 3.5 mpk q3d, MM-111 48 mpk q3d
# Method: 7.5×10^6 NCI-N87 cells were implanted subcutaneously in the flanks of female Nu/Nu mice. When tumor volumes reached on average 341 mm^3 (on day 24 after tumor implantation) mice were segregated into 4 groups of 10 mice. […] Tumors were measured twice a week with a digital caliper.
# BT474-M3-GFP-HRG tumors = test: BT474-M3-GFP-HRG tumor xenograft growth; type: in vivo, mice; settings: Example 10; MM-111 48 mpk q3d i.p., tamoxifen 5 mg; versus BT474-M3-GFP
# Method: 15×10^6 BT474-M3 cells engineered to express GFP (BT474-M3-GFP) or BT474-M3 cells engineered to express GFP and heregulin 1 (BT474-M3-GFP-HRG) were implanted in to the mammary fat pads of estrogen supplemented (0.72 mg 17β-estradiol in a 60-day slow release biodegradable carrier) female NCr/NU-mice (Taconic Farms, Inc). When tumor volumes reached on average 516 mm^3 (BT474-M3-GFP-HRG on day 17 after tumor implantation) or 422 mm^3 (BT474-M3-GFP on day 20 after tumor implantation), mice were segregated into 8 groups of 10-15 mice. Groups received either no treatment (Control), MM-111 (48 mpk q3d i.p. (dose every three days, intraperitoneally)), lapatinib (150 mpk qd p.o. (oral dose daily)), tamoxifen (5 mg free base tamoxifen in a 60-day slow release biodegradable carrier), MM-111 and lapatinib, MM-111 and tamoxifen, lapatinib and tamoxifen or MM-111, lapatinib and tamoxifen. Tumors were measured twice a week with a digital caliber.
# [3] = tested on: ErbB3, Akt and ERK1/2 signaling in BT474-M3-GFP tumors; test: Target and downstream signaling in BT474-M3-GFP tumor lysates (Luminex, western blot); type: in vivo, mice; settings: end of study tumor lysates
# Method: as §4
# [4] = tested on: BT474-M3 wild type cell spheroids; test: Spheroid assay, parental cells; type: cell-based; settings: series dilution, six days
# Method: (§5) Cells are cultured for six days. Spheroids are then examined by Nikon microscope and analyzed by MetaMorph® Image Analysis Software (Molecular Devices). The spheroid size from cells cultured in medium containing 10% FBS is set as a control.
# [5] = tested on: trastuzumab-resistant BT474-M3 cells; test: Cell proliferation assay (WST-1), trastuzumab-resistant cells; type: cell-based; settings: series dilution, five days
# Method: (§6) After five days of treatment, cell viability is measured by WST-1 (Roche, Cat. #5015944001) according to manufacturer's instructions. Cells treated with control (RPMI1640 with 10% FBS) are set as 100%, other treatments are expressed as percentage of the control.
# [6] = tested on: BT474-M3 parental (wild-type) cells; test: Cell proliferation assay (WST-1), parental cells; type: cell-based; settings: series dilution, five days
# Method: as §6
# [7] = tested on: trastuzumab-resistant BT474-M3 cell spheroids; test: Spheroid assay, trastuzumab-resistant cells; type: cell-based
# Method: as §5
# [8] = tested on: BT474-M3 breast cancer xenograft; test: BT474-M3 breast cancer xenograft model; type: in vivo, mice; settings: MM-111 3 mg/kg every 3 days, trastuzumab 1 mg/kg weekly
# Method: BT474-M3 cells (2×10^7 cells per mice) are inoculated subcutaneously into Nu/Nu immunodeficient mice, which are implanted with an estrogen pellet (0.72 mg; 60-day release) one day before the experiment. […] Tumors are measured twice a week and the experiment is ended at day 40.
# [9] = tested on: EGFR wild-type NSCLC cell lines; test: Spheroid assay (CellTiter Glo live cell density) in EGFR wild-type NSCLC cell lines; type: cell-based
# Method: The cell lines bear no mutations within their EGFR genes and represent three distinct histological subtypes (see Table X below). Cells harboring Ras mutations are indicated.
# Relative live cell densities were then determined using the CellTiter Glo® reagent (Promega).
# [10] = tested on: heregulin-induced phosphorylation of ErbB3, AKT and ERK in ACHN, Du145 and OvCAR8 cells; test: ELISA of heregulin-induced pErbB3, pAKT and pERK in cell lysates; type: cell-based
# Method: In the first set of experiments, three cancer cell lines (ACHN (renal cell adenocarcinoma, ATCC® #CRL-1611™), Du145 (prostate carcinoma, ATCC® #HTB-81™) and OvCAR 8 (ovarian adenocarcinoma, ATCC® #HTB-161™) cell lines; obtained from the National Cancer Institute's Developmental Therapeutics Program) were seeded at 35,000 cells per well in 96-well plates and grown overnight (maintenance culture medium was RPMI-1640 media supplemented with 10% fetal calf serum, 2 mM L-glutamine, and Pen-Strep; cells were grown in a humidified atmosphere at 5% CO2, 95% air at 37° C.). Cells were synchronized by 20-24 hour serum starvation. The cells were then pre-incubated with 4-fold serial dilutions, ranging from […] to 7.6 pM, of MM-121 for 30 minutes. […]
# For ELISA analysis of cell lysates, capture antibodies against ErbB1 (R&D Systems AF231), ErbB2 (R&D Systems, MAB1129), ErbB3 (R&D Systems, MAB 3481) and AKT (Upstate, 05-591 MG) were incubated in 384 well black flat-bottom polystyrene high-binding plates (Corning, 3708) overnight at room temperature. […] All ELISAs were visualized with SuperSignal® ELISA Pico Chemiluminescent Substrate (Pierce, Cat. #37069) and luminescent signal was measured using a luminometer.
# Inhibitor IC50 values were calculated by least-squares fitting the dose response data with a sigmoidal curve (GraphPad Prism®, GraphPad Software, Inc., La Jolla, Calif.).
# [11] = in the presence of 5 nM heregulin
molecule,measurement,setting,value
N.N.[Cl][Pt][Cl] [cisplatin],"cell viability (percentage of media control), A2780cis versus A2780",A2780cis cells,much greater viability
same,pAKT production,pAKT in A2780cis cells,no effect on pAKT production
same,pAKT production,pAKT in A2780 cells,decrease in pAKT production
"CS(=O)(=O)CCNCc1ccc(-c2ccc3ncnc(Nc4ccc(OCc5cccc(F)c5)c(Cl)c4)c3c2)o1 [lapatinib, reference compound]",inhibition of cell proliferation,BT474-M3 cells; basal conditions,50%
same,inhibition of cell proliferation,BT474-M3 cells; [11],23%
same,inhibition of AKT phosphorylation,[1],inhibited phosphorylation of AKT
same,activity in reducing pErbB3 levels with tumoral HRG expression,[2]; end of study tumor lysates,decreased
same,ratio of pERK and totERK levels,[2],decreased effectiveness
same,ratio of pErbB3 to total ErbB3,[2],effectiveness was reduced in the presence of HRG
same,ratio of phospho-Akt to total Akt,[2],decreased effectiveness
CC(=O)O[C@H]1C(=O)[C@@]2(C)[C@H]([C@H](OC(=O)c3ccccc3)[C@]3(O)C[C@H](OC(=O)[C@H](O)[C@@H](NC(=O)c4ccccc4)c4ccccc4)C(C)=C1C3(C)C)[C@]1(OC(C)=O)CO[C@@H]1C[C@@H]2O [paclitaxel],tumor growth,NCI-N87 tumors,only tumor stasis at best
"CC/C(=C(\c1ccccc1)c1ccc(OCCN(C)C)cc1)c1ccccc1 [tamoxifen, reference compound]",effect of tumoral HRG overexpression on efficacy (tumor volume),BT474-M3-GFP-HRG tumors,improved
"MM-111: bispecific anti-ErbB3, anti-ErbB2 antibody, two scFvs in a Human Serum Albumin conjugate, SEQ ID NO:44",inhibition of cell proliferation,BT474-M3 cells; basal conditions,24%
same,inhibition of cell proliferation,BT474-M3 cells; [11],33%
same,total ErbB3 expression,[3],increased total ErbB3 expression
same,inhibition of spheroid growth,[4],significantly reduced spheroid growth
same,inhibition of cell proliferation,[5],maintained similar inhibitory activity
same,inhibition of cell proliferation,[6],maintained similar inhibitory activity
same,effect of tumoral HRG overexpression on efficacy (tumor volume),BT474-M3-GFP-HRG tumors,modestly improved
same,total ErbB3 expression,[2]; end of study tumor lysates,increased total ErbB3 expression
same,activity in reducing pErbB3 levels with tumoral HRG expression,[2]; end of study tumor lysates,increased effectiveness
same,ratio of pERK and totERK levels,[2],effective at reducing pERK production in the presence of HRG
same,ratio of pErbB3 to total ErbB3,[2],decreased ErbB3 activity even in the presence of HRG
same,ratio of phospho-Akt to total Akt,[2],effective at reducing pAkt production in the presence of HRG
same,inhibition of spheroid growth in combination with gefitinib,[7]; in the presence of 100 nM gefitinib,effective at inhibiting cell growth
same,inhibition of spheroid growth in combination with erlotinib,[7]; in the presence of 300 nM erlotinib,effective at inhibiting cell growth
same,inhibitory activity in trastuzumab-resistant cells compared with wild-type cells,[7]; spheroids,slightly improved
same,inhibition of spheroid growth,"[7]; trastuzumab-resistant cells, series dilution, six days",significantly reduced spheroid growth
same,completely regressed tumors,[8],no complete regressions were observed
B1,"effect on sensitivity of spheroids to erlotinib, dose range","[9]; 1 μM MM-121 added to erlotinib 0 to 10 μM, 10 nM HRG, all eight cell lines",restore sensitivity of the spheroids to erlotinib
same,effect on sensitivity of the cells to erlotinib,"[9]; MM-121 1 μM with erlotinib 1 μM, HRG-stimulated cells, all five cell lines",greatly improve sensitivity of the cells to erlotinib
same,"inhibition of HRG-induced ErbB3, AKT and ERK phosphorylation","[10]; MM-121 2 mM to 7.6 pM pre-incubated 30 minutes, 25 nM heregulin 10 minutes, versus HRG control","inhibits HRG-induced ErbB3, AKT and ERK phosphorylation"
same,"maximal inhibition of pErbB3, pAKT and pERK relative to unstimulated control",[10]; in most cases,near or below basal signaling levels
same,pAKT production,pAKT in A2780cis cells,gradual decrease in pAKT production at all dose levels
